Results taken from patent US20170000126A1, “METHOD FOR INHIBITING CONIDIAL GERMINATION AND MYCELIAL GROWTH OF FUNGI SYMBIOTICALLY ASSOCIATED WITH BARK BEETLES” (Montana State University - Billings, priority 2015, published 2017).

How the values were obtained:
[1] = tested on: Ceratocystiopsis brevicomi; experiment: disk diffusion assay; assay type: cell-based; conditions: C. brevicomi; 50-300 μg per disk
Description: (§1) The second assay is based on the standard “disk diffusion assay” routinely used in antimicrobial testing. Fungi are grown and harvested as for the microplate assay. After diluting 1:10, 150 μl of filtered conidia are spread evenly onto an Malt Extract Agar (MEA) plate. For each plate, 50 μg (0.12 μmole), 100 μg (0.25 μmole), 200 μg (0.50 μmole) and 300 μg (0.75 μmole) of the appropriate molecule (dissolved in DMSO) are spotted onto four separate Whatman Grade AA 6 mm filter disks. A control disk with 20 μl of DMSO only is also prepared. The DMSO is allowed to evaporate completely from each disk at room temperature and then the molecule-impregnated disks are positioned equidistant from each other on a plate. Plates are incubated at room temperature for 3 to 7 days, depending on the fungal species. At the end of the incubation period, the zone of inhibition (i.e., the region around each disk where no growth is visible) is measured from edge to edge of visible growth across and over the center of the disk. Images of the disk assays are obtained using an Epson Perfection V750 Pro desktop scanner.
(§2) Strains of G. clavigera, O. montium and C. brevicomi were obtained from Dr. Diana Six at the University of Montana and maintained on MEA plates (see below) at room temperarture.
(§3) Each small molecule was dissolved in dimethyl sulfoxide (DMSO) as a 10 mM stock and diluted directly into 100 μl of the appropriate YPD medium at 50 μM, 100 μM, 200 μM and 300 μM final concentration (for the microplate assay) or spotted onto Whatman 6 mm filter disks in 50 microgram (μg), 100 μg, 200 μg or 300 μg amounts (for the disk diffusion assay). The control condition (no small molecule) included DMSO to a concentration equivalent to that of the small molecule-containing wells or filter disks.
(§4) In order to identify additional inhibitors of morphogenesis, we employed a core structure search of the Chembridge chemical database and identified 72 compounds of related structure to BH3I-1 (the “core structure” used in the database searches was defined as the benzylidene group attached to a thiazolidine ring). The BH3I-1-related molecules were tested in the disk diffusion assay (200 μg per disk) for anti-fungal activity against all three species of bark beetle-associated fungi. […] These molecules were retested three separate times with 50, 100, 200 and 300 μg per disk (FIGS. 6, 7, 8, 9, 10).

Grosmannia clavigera [2] = experiment: disk diffusion assay; assay type: cell-based; conditions: G. clavigera; 50-300 μg per disk
Description: as §1, §2, §3, §4

Ophiostoma montium [3] = experiment: disk diffusion assay; assay type: cell-based; conditions: O. montium; 50-300 μg per disk
Description: as §1, §2, §3, §4

[4] = tested on: Ceratocystiopsis brevicomi; experiment: microplate assay (conidial germination and mycelial growth); assay type: cell-based; conditions: C. brevicomi
Description: (§5) In the first assay, referred to as the “microplate assay”, fungi are first grown in liquid medium at 25° C. for 48 hours, and conidia are harvested by filtration through cheese cloth. The conidia are then transferred to the wells of an optical microplate containing (i) growth medium and (ii) varying concentrations of BH3I-1 (typically 0, 50, 100, 200 and 300 μM BH3I-1). The microplates are incubated for up to 120 hrs at 25° C. Germination and mycelial growth are monitored visually with a Nikon TE200 inverted microscope and spectrophotometrically in a Biotek Synergy H4 plate reader. For the spectrophotometric analysis, Optical Density 600 (OD600) readings are taken every six hours over the course of the experiment.
as §2
(§6) YPD medium (1% Yeast Extract, 2% Peptone and 2% Dextrose), a standard fungal growth medium, is used for these experiments. YPD plates included 1.5% agar.
as §3

Grosmannia clavigera [5] = experiment: as above; assay type: cell-based; conditions: G. clavigera
Description: as §5, §2, §6, §3

Ophiostoma montium [6] = experiment: as above; assay type: cell-based; conditions: O. montium
Description: as §5, §2, §6, §3

C. albicans = conditions: previous finding of the inventors (ref. 5); cited from earlier work

| Structure (SMILES) | anti-fungal activity (inhibition of conidial germination and mycelial growth) [1] | anti-fungal activity (inhibition of conidial germination and mycelial growth) (Grosmannia clavigera [2]) | anti-fungal activity (inhibition of conidial germination and mycelial growth) (Ophiostoma montium [3]) | inhibition of conidial germination and mycelial growth [4] | conidial cells failed to germinate (Grosmannia clavigera [5]; 100 μM) | mycelial growth of conidia that did germinate (Grosmannia clavigera [5]; 100 μM) | time for which growth inhibition was maintained (Grosmannia clavigera [5]; 25° C., YPD) [h] | inhibition of conidial germination and mycelial growth (Ophiostoma montium [6]) | inhibition of morphogenesis (yeast-to-filamentous growth transition) (C. albicans) |
| --- | --- | --- | --- | --- | --- | --- | --- | --- | --- |
| CC(C)c1ccc(C=C2SC(=S)N(CC(=O)O)C2=O)cc1 [BH3I-1-68, [5-(4-isopropylbenzylidene)-4-oxo-2-thioxo-1,3-thiazolidin-3-yl]acetic acid] | inhibit the conidial germination and mycelial growth | inhibit the conidial germination and mycelial growth | inhibit the conidial germination and mycelial growth |  |  |  |  |  |  |
| CCCC(C(=O)O)N1C(=O)C(=Cc2ccc(O)cc2)SC1=S (stereo not drawn) [BH3I-1-66, 2-[5-(4-hydroxybenzylidene)-4-oxo-2-thioxo-1,3-thiazolidin-3-yl]pentanoic acid] | inhibit the conidial germination and mycelial growth | inhibit the conidial germination and mycelial growth | inhibit the conidial germination and mycelial growth |  |  |  |  |  |  |
| CCCC(C(=O)O)N1C(=O)C(=Cc2ccccc2Cl)SC1=S (stereo not drawn) [BH3I-1-69, 2-[5-(2-chlorobenzylidene)-4-oxo-2-thioxo-1,3-thiazolidin-3-yl]pentanoic acid] | inhibit the conidial germination and mycelial growth | inhibit the conidial germination and mycelial growth | inhibit the conidial germination and mycelial growth |  |  |  |  |  |  |
| CC(C)C(C(=O)O)N1C(=O)C(=Cc2ccc(Cl)cc2)SC1=S (stereo not drawn) [BH3I-1-12, 2-[5-(4-chlorobenzylidene)-4-oxo-2-thioxo-1,3-thiazolidin-3-yl]-3-methylbutanoic acid] | inhibit the conidial germination and mycelial growth | inhibit the conidial germination and mycelial growth | inhibit the conidial germination and mycelial growth |  |  |  |  |  |  |
| CC(C)C(C(=O)O)N1C(=O)C(=Cc2ccc(Br)cc2)SC1=S (stereo not drawn) [BH3I-1, 5-(p-Bromobenzylidine)-α-isopropyl-4-oxo-2-thioxo-3-thiozolidineacetic acid] | inhibit the conidial germination and mycelial growth | inhibit the conidial germination and mycelial growth | inhibit the conidial germination and mycelial growth | inhibited conidial germination and mycelial growth | approximately 80% | mycelia grew for a few hours and then stopped | 120 | inhibited conidial germination and mycelial growth | inhibits |
